Experimental data published in US6096747A, “Phenylaminocarbonyl derivatives and processes for their preparation” (Celltech Therapeutics Limited, priority 1992, dated 2000).

Tests used:
[1] = test system: PDE IV; experiment: Isolated enzyme PDE IV inhibition (HL60 cells); assay type: biochemical; details: Ki PDE IV HL60 at (1 μM); pH 7.5, 30° C.; read-out: approximate Ki, PDE IV HL60
Experimental: The potency and selectivity of the compounds of the invention was determined using a battery of distinct PDE isoenzymes as follows:
The enzymes were purified to kinetic homogeneity using standard chromatographic techniques.
Phosphodiesterase activity was assayed as follows. The reaction was conducted in 150 μl of standard mixture containing (final concentrations): 50 mM TES-NaOH buffer (pH 7.5), 10 mM MgCl2, 0.1 μM [^3 H]-cAMP and vehicle or various concentrations of the test compounds. The reaction was initiated by addition of enzyme and conducted at 30° C. for between 5 to 30 mins. The reaction was terminated by addition of 50 μl 2% trifluoroacetic acid containing [^14 C]-5'AMP for determining recovery of the product. An aliquot of the sample was then applied to a column of neutral alumina and the [^3 H]-cAMP eluted with 10 ml 0.1 TES-NaOH buffer (pH8). The [^3 H]-5'-AMP product was eluted with 2 ml 2M NaOH into a scintillation vial containing 10 ml of scintillation cocktail. Recovery of [^3 H]-5'AMP was determined using the [^14 C]-5'AMP and all assays were conducted in the linear range of the reaction.

[2] = test system: right atrial muscle; details: selective PDE IV / PDE III reference inhibitors; background statement; cited from earlier work
[3] = test system: papillary muscle; details: selective PDE IV / PDE III reference inhibitors; background statement; cited from earlier work
[4] = non-specific PDE inhibitor; cited from earlier work

Structure (SMILES) | Ki [1] [nM] | direct effects on atria (chronotropic), reference inhibitors [2] | direct effects on papillary muscle (inotropic), reference inhibitors [3] | cardiovascular changes [4]
COc1ccc(NC(=O)c2ccccc2)cc1OC1CCCC1 [Example 1, N-Benzoyl-3-cyclopentyloxy-4-methyloxyaniline] | ~391 | – | – | –
COc1ccc(NC(=O)c2ccccc2[N+](=O)[O-])cc1OC1CCCC1 [Example 3, 3-Cyclopentyloxy-4-methyloxy-N-(2-Nitrobenzoyl)aniline] | ~179 | – | – | –
Cc1[nH]c(=O)c(C#N)cc1-c1ccncc1 [milrinone] | – | positive chronotropic and inotropic effects | positive chronotropic and inotropic effects | –
COc1ccc(C2CNC(=O)C2)cc1OC1CCCC1 (stereo not shown) [rolipram] | – | do not have any direct effects | do not have any direct effects | –
Cn1c(=O)c2[nH]cnc2n(C)c1=O [theophylline] | – | – | – | significant cardiovascular changes such as tachycardia
